Laboratory results: the supplement of paper PMC10307832

Tests used:
Experiment in all cases: relative viability (nuclei count vs DMSO), 5 days (fraction); higher = more cells survive
[1] = compound: C[C@@H](Oc1cc(-c2cnn(C3CCNCC3)c2)cnc1N)c1c(Cl)ccc(F)c1Cl [Crizotinib] + CS(=O)(=O)CCNCc1ccc(-c2ccc3ncnc(Nc4ccc(OCc5cccc(F)c5)c(Cl)c4)c3c2)o1 [Lapatinib] (partner 2 µM)
Outline: (§1)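 Relative viability equals treated-well nuclei counts divided by vehicle-well nuclei counts. Counts came from 4× images of lung cancer cell lines grown in 1536-well plates for 5 days after pin-tool dosing on the day after seeding. Dosing used one drug alone or a fixed anchor-drug dose plus five library-drug doses (not always all listed) in √10 steps, and values are medians of duplicate plates.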

[2] = compound: CC(C)C[C@H](NC(=O)[C@H](CCc1ccccc1)NC(=O)CN1CCOCC1)C(=O)N[C@@H](Cc1ccccc1)C(=O)N[C@@H](CC(C)C)C(=O)[C@@]1(C)CO1 [Carfilzomib] + CC(C)C[C@H](NC(=O)[C@H](Cc1ccccc1)NC(=O)c1cnccn1)B(O)O [Bortezomib] (partner 0.002 µM)
Outline: as §1

[3] = compound: O=C(c1cc(Cc2n[nH]c(=O)c3ccccc23)ccc1F)N1CCN(C(=O)C2CC2)CC1 [Olaparib] + COc1cc2c(Oc3ccc(NC(=O)C4(C(=O)Nc5ccc(F)cc5)CC4)cc3F)ccnc2cc1OCCCN1CCOCC1 [Foretinib] (partner 0.25 µM)
Outline: as §1

[4] = compound: O=C(c1cc(Cc2n[nH]c(=O)c3ccccc23)ccc1F)N1CCN(C(=O)C2CC2)CC1 [Olaparib] + CS(=O)(=O)CCNCc1ccc(-c2ccc3ncnc(Nc4ccc(OCc5cccc(F)c5)c(Cl)c4)c3c2)o1 [Lapatinib] (partner 2 µM)
Outline: as §1

Row | Cell Line | relative viability ([1]; first compound 0.01 µM) | relative viability ([1]; first compound 0.03162 µM) | relative viability ([1]; first compound 0.1 µM) | relative viability ([1]; first compound 0.3162 µM) | relative viability ([1]; first compound 1 µM) | relative viability ([2]; first compound 0.001 µM) | relative viability ([2]; first compound 0.003162 µM) | relative viability ([2]; first compound 0.01 µM) | relative viability ([2]; first compound 0.03162 µM) | relative viability ([2]; first compound 0.1 µM) | relative viability ([3]; first compound 0.08 µM) | relative viability ([3]; first compound 0.253 µM) | relative viability ([3]; first compound 2.53 µM) | relative viability ([3]; first compound 8 µM) | relative viability ([4]; first compound 0.08 µM) | relative viability ([4]; first compound 0.253 µM) | relative viability ([4]; first compound 2.53 µM) | relative viability ([4]; first compound 8 µM)
1 | HCC-15 | 0.831 | 0.881 | 0.886 | 0.549 | 0.836 | 0.979 | 0.978 | 1.01 | 0.481 | 0.0765 | 1.23 | 0.95 | 1.07 | 0.868 | 0.999 | 0.752 | 0.808 | 0.765
2 | HCC-44 | 0.96 | 1.02 | 1.14 | – | 1.05 | 0.876 | 0.917 | 0.897 | 0.552 | 0.147 | – | – | – | – | 1.02 | 0.946 | 1.11 | 1.05
3 | HCC-78 | 0.77 | 0.828 | 0.697 | 0.261 | 1.26 | 0.474 | 0.514 | 0.402 | 0.192 | 0.193 | 0.622 | 0.562 | 0.557 | 0.514 | 0.853 | 0.522 | 1.01 | 0.666
4 | HCC-366 | 1 | 1.06 | 1.05 | – | 1.11 | 0.891 | 0.966 | 1.07 | 0.196 | 0.0175 | 0.875 | 0.908 | 0.889 | 0.636 | 1.06 | 0.884 | 0.77 | 0.417
5 | HCC-827 | 0.153 | 0.211 | 0.178 | 0.175 | 0.18 | 1.01 | 1.01 | 1.06 | 0.677 | 0.422 | 0.959 | 0.959 | 0.956 | 0.797 | 0.239 | 0.202 | 0.194 | 0.176
6 | HOP-62 | 0.796 | 1.15 | 1.01 | 0.84 | 1 | 0.531 | 0.475 | 0.425 | 0.0851 | 0.0746 | 1.19 | 1.13 | 0.892 | 0.774 | 1.22 | 1.08 | 0.741 | 0.538
7 | IA-LM | 0.861 | 0.954 | 0.738 | 0.822 | 0.641 | 0.843 | 0.673 | 0.584 | 0.0124 | 0.0142 | 1.36 | 0.978 | 1.06 | 1.02 | 1.13 | 0.926 | 0.746 | 0.602
8 | LC-2-ad | 0.866 | 0.981 | 1.03 | – | 0.54 | 0.947 | 1.08 | 0.482 | 0.132 | 0.0828 | 1.05 | 0.816 | 1.01 | 0.889 | 1.08 | 0.89 | 0.905 | 0.597
9 | LCLC-103H | – | – | – | – | – | 1 | 1.14 | 0.678 | 0.294 | 0.27 | 1.13 | 0.652 | 0.732 | 0.673 | – | – | – | –
10 | LK-2 | 0.953 | 0.852 | 0.819 | 0.867 | – | – | – | – | – | – | 1.4 | 1.21 | 1.15 | 1.12 | 0.985 | 0.935 | 0.92 | 0.941
11 | NCI-H358 | 0.392 | 0.447 | 0.445 | 0.382 | 0.483 | – | – | – | – | – | 0.962 | 0.66 | 0.675 | 0.64 | 0.388 | 0.434 | 0.44 | 0.426
12 | NCI-H441 | – | – | – | – | – | 0.25 | 0.383 | 0.14 | 0.153 | 0.111 | 1.13 | 0.857 | 0.967 | 0.83 | – | – | – | –
13 | NCI-H1395 | 0.971 | 1.14 | 1 | 0.922 | 0.956 | – | – | – | – | – | 1.04 | 0.87 | 0.842 | 0.563 | 0.98 | 0.661 | 0.839 | 0.435
14 | NCI-H1623 | – | – | – | – | – | – | – | – | – | – | 0.954 | 0.88 | 0.814 | 0.647 | – | – | – | –
15 | NCI-H1792 | 0.827 | 0.918 | 0.958 | 0.78 | 0.842 | 0.962 | 1 | 0.919 | 0.979 | 0.559 | – | – | – | – | 0.895 | 0.738 | 0.82 | 0.779
16 | NCI-H1944 | 0.751 | 0.82 | 0.767 | 0.715 | 0.863 | – | – | – | – | – | 0.704 | 0.784 | 0.648 | 0.603 | 0.781 | 0.663 | 0.668 | 0.627
17 | NCI-H2170 | 0.274 | 0.283 | 0.261 | 0.243 | 0.241 | – | – | – | – | – | 1.01 | 0.98 | 0.994 | 0.948 | 0.29 | 0.259 | 0.269 | 0.279
18 | NCI-H2342 | – | – | – | – | – | – | – | – | – | – | 1.18 | 1.18 | 0.977 | 0.948 | – | – | – | –
19 | SK-MES-1 | 0.415 | 0.414 | 0.51 | 0.43 | 0.541 | – | – | – | – | – | 1.05 | 0.861 | 0.907 | 0.889 | 0.537 | 0.491 | 0.501 | 0.433
20 | SW 900 | – | – | – | – | – | – | – | – | – | – | 0.999 | 0.744 | 0.994 | 0.659 | – | – | – | –
